From PMC4608580, “Synthesis and Evaluation of Biological Activity of Antimicrobial – Pro-Proliferative Peptide Conjugates” (PLoS ONE, 2015)
Values after ≈ are worked out from the molar mass of the structure shown. Residues, ends and D or L forms follow the SMILES beside them.

What was measured:
B. cereus = type: cell-based; settings: broth microdilution, Mueller-Hinton broth, approximately 10^5 CFU/mL, 37°C, 24 h, absorbance 590 nm, at least triplicate
Protocol: (§1) Luria-Bertani broth (LB) and Sabouraud Dextrose broth (SB) (Biocorp, Poland) were used for cultivation of bacteria and fungi strains, respectively. Antimicrobial activity of peptides was analyzed through determination of MIC (minimal inhibitory concentration) parameter according to the standard microdilution technique performed on 96-well plates. Mueller-Hinton broth (MHB) was used as the working medium for all bacterial strains, while in case of fungi it was additionally supplemented with 2% glucose.
(§2) Briefly, inoculum was prepared from freshly grown cultures of microorganisms being at their exponential phase of growth. Each well of 96-well plates containing 100 μL of serially diluted peptides in PBS (phosphate buffer saline) at concentration ranging from 2 to 250 μg/mL were inoculated with 100 μL of approximately 10^5 CFU/mL of bacterial suspension or about 2.5 x 10^3 CFU/mL of fungi suspended in a double concentrated Mueller-Hinton broth (supplemented with 2% glucose for Candida spps.). Then plates were incubated overnight at 37°C and absorbance was read at 590 nm after 24 h. Cultures without peptide were treated as positive control, while uninoculated Mueller-Hinton broth was defined as negative control. All measurements were run at least in triplicate.
(§3) All peptides were screened against the wide range of microorganisms, including Gram-negative, Gram-positive bacteria and fungi from Candida species (Table 2). Broth microdilution method for MIC determination was used as a standard procedure. All assays were performed on liquid Mueller-Hinton broth, which was additionally supplemented with 2% glucose when fungicidal activity towards Candida spps. was analyzed.

B. subtilis = type: cell-based; settings: broth microdilution, Mueller-Hinton broth, approximately 10^5 CFU/mL, 37°C, 24 h, absorbance 590 nm, at least triplicate
Protocol: as §1, §2, §3

[1] = test system: Candida albicans (CCM 8186); type: cell-based; settings: broth microdilution, Mueller-Hinton broth + 2% glucose, about 2.5 x 10^3 CFU/mL, 37°C, 24 h, absorbance 590 nm, peptide 2 to 250 μg/mL, at least triplicate
Description: (§4) Escherichia coli (PCM 2057), Staphylococcus aureus (PCM 2054), Staphylococcus epidermidis (PCM 2118), Pseudomonas aeruginosa (PCM 499) were obtained from Polish Collection of Microorganisms. Fungi strains Candida albicans (CCM 8186), Candida glabrata (CCM 8270), Candida parapsilosis (CCM 8260), Candida krusei (CCM 8271), Candida tropicalis (CCM 8264) were acquired from Czech Collection of Microorganisms.
as §1, §2, §3

[2] = test system: Candida glabrata (CCM 8270); type: cell-based; settings: broth microdilution, Mueller-Hinton broth + 2% glucose, about 2.5 x 10^3 CFU/mL, 37°C, 24 h, absorbance 590 nm, at least triplicate
Description: as §4, §1, §2, §3

[3] = test system: Candida krusei (CCM 8271); type: cell-based; settings: broth microdilution, Mueller-Hinton broth + 2% glucose, about 2.5 x 10^3 CFU/mL, 37°C, 24 h, absorbance 590 nm, at least triplicate
Description: as §4, §1, §2, §3

[4] = test system: Candida parapsilosis (CCM 8260); type: cell-based; settings: broth microdilution, Mueller-Hinton broth + 2% glucose, about 2.5 x 10^3 CFU/mL, 37°C, 24 h, absorbance 590 nm, at least triplicate
Description: as §4, §1, §2, §3

[5] = test system: Candida tropicalis (CCM 8264); type: cell-based; settings: broth microdilution, Mueller-Hinton broth + 2% glucose, about 2.5 x 10^3 CFU/mL, 37°C, 24 h, absorbance 590 nm, at least triplicate
Description: as §4, §1, §2, §3

[6] = test system: Escherichia coli (PCM 2057); type: cell-based; settings: broth microdilution, Mueller-Hinton broth, approximately 10^5 CFU/mL, 37°C, 24 h, absorbance 590 nm, at least triplicate
Description: as §4, §1, §2, §3

[7] = test system: Pseudomonas aeruginosa (PCM 499); type: cell-based; settings: broth microdilution, Mueller-Hinton broth, approximately 10^5 CFU/mL, 37°C, 24 h, absorbance 590 nm, at least triplicate
Description: as §4, §1, §2, §3

[8] = test system: Staphylococcus aureus (PCM 2054); type: cell-based; settings: broth microdilution, Mueller-Hinton broth, approximately 10^5 CFU/mL, 37°C, 24 h, absorbance 590 nm, at least triplicate
Description: as §4, §1, §2, §3

[9] = test system: Staphylococcus epidermidis (PCM 2118); type: cell-based; settings: broth microdilution, Mueller-Hinton broth, approximately 10^5 CFU/mL, 37°C, 24 h, absorbance 590 nm, at least triplicate
Description: as §4, §1, §2, §3

HaCaT keratinocytes = assay: Cell migration assay (in vitro scratch test); type: cell-based, human; settings: 25 μg/mL, 24 h
Protocol: Fibroblasts and keratinocytes were seeded (5x10^5 cells/well) in 6-well plates. When desired monolayer confluence was reached, cells were starved for 24 hours in serum-free DMEM. The monolayer was scratched then with 200μL-pipette tip. The floating cells and cell debris were removed by double washing in PBS, further replaced with a fresh serum-free medium. Wounded monolayers were incubated for the next 24 h in the presence of tested peptides used at concentration of 25 μg/mL and 5 μg/mL of Mitomycin C (Sigma Aldrich) to prevent proliferation. At the end of the experiment medium was removed and the cells were fixed with 3.7% PFA for 5 min, stained for the next 30 min with 0.05% crystal violet solution, washed several times with distilled water and the plates were left inverted for a couple of minutes to drain. The wounded areas were then photographed by means of Zeiss Observer D1 microscope equipped with camera AxioCam and analyzed with AxioVision software (Carl Zeiss, Germany). Migration activity of the cells treated with the tested peptides were expressed as the percentage of the wounded area with respect to the control probe (cell cultures without any of the peptide), assumed as 100%.
An in vitro scratch test was performed to investigate the effect of the analyzed compounds on keratinocytes and fibroblasts migration. Evaluation was based on the efficiency of the invasion of the monolayer cells to the prewounded area within 24 h after stimulation with the appropriate compound added at concetration of 25μg/mL.
Fig 2 Effect of the peptides on HaCaT keratinocytes and fibroblasts cell migration in the in vitro scratch test. HaCaT cells and fibroblasts were grown in 6-well plates until the 100% confluence was reached, then cells were starved for the next 12 hours in DMEM without 10% FCS and scratched once vertically with a 200μL pipette tip. After being washed two times with sterile PBS, a fresh portion of DMEM medium was added and cells were treated with the tested peptides applied at their optimal doses (25 μg/mL). Migration was analyzed after 24 hours by means of Zeiss Observer D1 microscope, wounding areas were analyzed with AxioVision software and expressed as the percentage of the wound width in comparison to the control sample (cells incubated in DMEM without FCS). Control+ FCS corresponds to the sample with cells incubated in the medium containing 10% FCS and was treated as the additional positive control. Data represent the mean ± SD of three independent experiments. *P < 0.05, **P < 0.01, ***P < 0.001 vs. control.

[10] = test system: human primary dermal fibroblasts; assay: Cell migration assay (in vitro scratch test); type: cell-based; settings: 25 μg/mL, 24 h, serum-free DMEM, Mitomycin C 5 μg/mL, vs. control without peptide, three independent experiments
Protocol: Biopsies of healthy human skin were obtained aseptically from three donors (47–69 years old) undergoing circumcision after obtaining their written informed consent. All the procedures were approved by the Ethics Committee of Medical University of Gdansk (NKEBN/483/2011. Issued: 2011-12-19). The samples were washed several times with sterile PBS (Sigma-Aldrich, Germany) containing antibiotic (200 U/mL penicillin and 200 μg/mL streptomycin), after which, the subcutaneous tissue was cut off with a sharp blade. The resulting sheets were cut into small fragments, washed two times with sterile PBS and treated with 6 U/mL dispase II (BD, USA) overnight at 4°C to separate epidermis and dermis. The dermis was then digested with 1.0 mg/mL collagenase type I (from Clostridium histolyticum Sigma-Aldrich, Germany) for 2 hours at 37°C to isolate fibroblasts. Cells were used between the 2nd and 4th passage in all experiments.
Fibroblasts and keratinocytes were seeded (5x10^5 cells/well) in 6-well plates. When desired monolayer confluence was reached, cells were starved for 24 hours in serum-free DMEM. The monolayer was scratched then with 200μL-pipette tip. […] The wounded areas were then photographed by means of Zeiss Observer D1 microscope equipped with camera AxioCam and analyzed with AxioVision software (Carl Zeiss, Germany). Migration activity of the cells treated with the tested peptides were expressed as the percentage of the wounded area with respect to the control probe (cell cultures without any of the peptide), assumed as 100%.
An in vitro scratch test was performed to investigate the effect of the analyzed compounds on keratinocytes and fibroblasts migration. […]
Fig 2 Effect of the peptides on HaCaT keratinocytes and fibroblasts cell migration in the in vitro scratch test. […] Migration was analyzed after 24 hours by means of Zeiss Observer D1 microscope, wounding areas were analyzed with AxioVision software and expressed as the percentage of the wound width in comparison to the control sample (cells incubated in DMEM without FCS). […]

[11] = Circular dichroism, alpha-helical content; type: physicochemical; settings: CD, mean residue ellipticity at 222 nm (Eq 1), peptide 0.4 mg/ml in 30 mM SDS, room temperature
Protocol: Circullar dichroism spectra of analyzed compounds were recorded on a Jasco J-815 spectropolarimeter using a quartz cell of 1 mm path length between 195–260 nm at room temperature. Peptides at concentration of 0.4 mg/ml were dissolved in water or 30 mM SDS solution. SDS micelle system was used as the simplified model of negatively charged lipid membrane. On the basis of the obtained results the alpha-helical content was determined from the mean residue ellipticities at 222 nm according to Eq 1: %Helix=([θ]obs/([θ]helixx(1−2.57/l))x100, (1) where [θ] obs is the experimentally observed mean-residue ellipticity at 222 nm, [θ]helix is the theoretical ellipticity of peptide of infinite length with a 100% helix population, taken as -39 500 deg·cm^2/dmol, and l is the number of peptide bonds.
Circular dichroism method was applied to obtain a basic information about the secondary structure of the synthesized compounds (with the exception of CAR, CAR3, DAL, CTEN2) in two chemical environments, water and 30 mM SDS. As expected, all the tested compounds in water adopted a random-coil structure, while in the presence of 30 mM SDS most of them formed α-helices with characteristic negative minima around 208 and 220 nm. […] The examples of CD spectra for selected peptides could be seen in supporting information (Figure A in S1 File). On the basis of the experimentally obtained values of the mean residue ellipticities of peptides at 222 nm their alpha-helical content was calculated according to the Eq 1 (Table 1).

CC(C)C[C@H](NC(=O)[C@H](Cc1ccccc1)NC(=O)CNC(=O)[C@@H](C)NC(=O)[C@@H](N)Cc1ccc(O)cc1)C(=O)N[C@@H](CCCNC(=N)N)C(=O)NCCOCCOCC(=O)N[C@@H](CCCCN)C(=O)N[C@@H](CCCCN)C(=O)N[C@H](C(=O)N[C@H](C(=O)N[C@@H](Cc1ccccc1)C(=O)N[C@@H](Cc1c[nH]c2ccccc12)C(=O)N[C@H](C(=O)N[C@@H](CCCCN)C(=O)N[C@@H](Cc1ccccc1)C(=O)N[C@@H](CCCCN)C(N)=O)C(C)C)C(C)C)C(C)C [DAL-PEG-KSLW] (HELM PEPTIDE1{Y.[dA].G.F.L.R.[O=C(COCCOCCN[*:1])[*:2]].K.K.V.V.F.W.V.K.F.K.[am]}$$$$V2.0; N-terminus assumed)
MIC B. cereus (B. cereus): 125 µg/mL (≈ 57.9 µM)
MIC B. subtilis (B. subtilis): 15.6 µg/mL (≈ 7.22 µM)
MIC C. albicans [1]: 31.3 µg/mL
MIC C.glabrata [2]: 125 µg/mL
MIC C.krusei [3]: 31.3 µg/mL
MIC C. parapsilosis [4]: 62.5 µg/mL
MIC C.tropicalis [5]: 7.8 µg/mL
MIC E.coli [6]: 7.8 µg/mL (≈ 3.61 µM)
MIC P. aeruginosa [7]: 62.5 µg/mL (≈ 28.9 µM)
MIC S.aureus [8]: 62.5 µg/mL (≈ 28.9 µM)
MIC S. epidermidis [9]: 3.9 µg/mL (≈ 1.8 µM)
Effect on keratinocyte migration (scratch test), in words (HaCaT keratinocytes; serum-free DMEM, Mitomycin C 5 μg/mL, vs. control without peptide, three independent experiments): best results
Keratinocyte migration higher than that of the native peptides KSLW and DAL (HaCaT keratinocytes; scratch test): about 15%
Effect on fibroblast migration (scratch test), in words [10]: highest migration rate
α-helicity [11]: 22%
